Calls of active or inactive are those of the source. The calls are words filed in the database; no cut-off is given here.
system: HepG2; experiment: Cytotoxicity against human HepG2 cells assessed as reduction in cell viability at 50 uM incubated for 48 hrs by Alamar Blue staining based fluorescence assay; assay type: functional; settings: not given

Row | Structure (SMILES) | Activity
1 | COc1cccc2c1C(=O)c1c(O)c3c(c(O)c1C2=O)C[C@@](O)(C(=O)CO)C[C@@H]3O[C@H]1C[C@H](N)[C@H](O)[C@H](C)O1 | Active

system: Plasmodium falciparum; experiment: Antimalarial activity against Plasmodium falciparum NF54 strain male gametes in human RBC incubated for 48 hrs by dual gamete formation assay based HTS assay; assay type: functional, organism-based; settings: NF54, 48 h

Row | Structure (SMILES) | EC50 [µM]
2 | O=S(=O)(NCC1(O)CCOc2ccccc21)c1ccccc1Br (racemic) | 0.53
3 | O=S(=O)(NCC1(O)CCOc2ccccc21)c1ccc(Br)s1 (racemic) | 0.2

system: Plasmodium falciparum; experiment: Antimalarial activity against Plasmodium falciparum NF54 strain male gametes in human RBC assessed as induction of impairment of exflagellation of male gametes by dual gamete formation assay; assay type: functional, organism-based; settings: not given

Row | Structure (SMILES) | EC50 [µM]
4 | O=S(=O)(NCC1(O)CCOc2ccccc21)c1ccc(Br)s1 (racemic) | 0.13 to 0.292
5 | O=S(=O)(NCC1(O)CCOc2cc(F)ccc21)c1cccc(Br)c1 (racemic) | 0.079
6 | COC1(CNS(=O)(=O)c2cccc(Br)c2)CCOc2ccccc21 (racemic) | 0.149
7 | O=S(=O)(NCC1(O)CCOc2ccccc21)c1cccc(Br)c1 (racemic) | 0.128
8 | O=S(=O)(NCC1(O)CCOc2ccccc21)c1ccc(Br)s1 (single isomer, unassigned; (+)) | > 1
9 | O=S(=O)(NCC1(O)CCOc2cc(F)ccc21)c1cccc(Br)c1 (single isomer, unassigned; (+)) | > 1
10 | COC1(CNS(=O)(=O)c2cccc(Br)c2)CCOc2ccccc21 (single isomer, unassigned; (+)) | > 2
11 | O=S(=O)(NCC1(O)CCOc2ccccc21)c1cccc(Br)c1 (single isomer, unassigned; (+)) | > 2
12 | O=S(=O)(NCC1(O)CCOc2ccccc21)c1ccc(Br)s1 (single isomer, unassigned; (-)) | 0.046
13 | O=S(=O)(NCC1(O)CCOc2cc(F)ccc21)c1cccc(Br)c1 (single isomer, unassigned; (-)) | 0.051
14 | O=S(=O)(NCC1(O)CCOc2ccccc21)c1cccc(Br)c1 (stereo in doubt; (-)-6) | 0.018
15 | COC1(CNS(=O)(=O)c2cccc(Br)c2)CCOc2ccccc21 (stereo in doubt; (-)-74) | 0.059

same assay, conditions: Plasmodium falciparum, NF54

Row | Structure (SMILES) | EC50 [µM]
16 | O=S(=O)(NCC1=CCOc2ccccc21)c1ccc(Br)s1 | > 25
17 | O=S(=O)(NCC1(O)CCOc2ccccc21)c1ccccc1Br (racemic) | 0.344 to 0.367
18 | CC(=O)c1cccc(S(=O)(=O)NCC2(O)CCOc3ccccc32)c1 (racemic) | > 20
19 | O=S(=O)(NCC1(O)CCOc2ccccc21)c1ccccc1 (racemic) | 0.47
20 | O=S(=O)(NCC1(F)CCOc2ccccc21)c1cccc(Br)c1 (racemic) | 0.945
21 | O=S(=O)(NCC1CCOc2ccccc21)c1ccc(Br)s1 (racemic) | > 10
22 | C=CCOc1ccc2c(c1)C(O)(CNS(=O)(=O)c1cccc(Br)c1)CCO2 (racemic) | > 25
23 | O=S(=O)(NCC1(O)CCOc2ccc(Br)cc21)c1ccc(Br)s1 (racemic) | > 1
24 | O=S(=O)(NCC1(O)CCOc2ccccc21)c1ccccc1Cl (racemic) | > 1
25 | O=S(=O)(NCC1(O)CCOc2ccc(F)cc21)c1cccc(Br)c1 (racemic) | 0.083
26 | O=S(=O)(NCC1(O)CCOc2ccccc21)c1ccc(Br)cc1 (racemic) | > 5
27 | COc1cccc2c1OCCC2(O)CNS(=O)(=O)c1ccc(Br)s1 (racemic) | > 25
28 | O=S(=O)(NCC1(O)CCOc2ccc(O)cc21)c1cccc(Br)c1 (racemic) | > 10
29 | O=S(=O)(NCC1(O)CCOc2ccc(Br)cc21)c1cccc(Br)c1 (racemic) | 0.785
30 | O=S(=O)(NCC1(O)CCOc2ccccc21)c1ccc(Cl)cc1 (racemic) | > 1
31 | N#Cc1ccc(S(=O)(=O)NCC2(O)CCOc3ccccc32)cc1 (racemic) | > 25
32 | COc1cccc2c1OCCC2(O)CNS(=O)(=O)c1cccc(Br)c1 (racemic) | > 25
33 | O=S(=O)(NCC1(O)CCOc2ccccc21)c1cccc(Cl)c1 (racemic) | 0.118
34 | O=S(=O)(NCC1(O)CCOc2cc(F)ccc21)c1ccc(Br)s1 (racemic) | 0.364
35 | O=S(=O)(NCC1(O)CCOc2ccc(F)cc21)c1ccc(Br)s1 (racemic) | 0.196
36 | COC1(CNS(=O)(=O)c2ccc(Br)s2)CCOc2ccccc21 (racemic) | 0.354
37 | O=S(=O)(NCC1CCOc2ccccc21)c1cccc(Br)c1 (racemic) | > 10
38 | O=S(=O)(NCC1(O)CC(c2ccccc2)Oc2ccccc21)c1cccc(Br)c1 (racemic) | > 25
39 | COc1ccc(S(=O)(=O)NCC2(O)CCOc3ccccc32)cc1 (racemic) | > 25
40 | O=S(=O)(NCC1(O)CC(c2ccccc2)Oc2ccccc21)c1ccc(Br)s1 (racemic) | > 25
41 | O=S(=O)(NCC1(F)CCOc2ccccc21)c1ccc(Br)s1 (racemic) | > 1
42 | O=S(=O)(NCC1(O)CCOc2ccccc21)c1sccc1Br (racemic) | 0.212

system: HepG2; experiment: Cytotoxicity against human HepG2 cells assessed as reduction in cell viability at 10 uM incubated for 48 hrs by Alamar Blue staining based fluorescence assay; settings: hepg2, 48 h

Row | Structure (SMILES) | Activity
43 | O=S(=O)(NCC1(O)CCOc2ccccc21)c1ccc(Br)s1 (racemic) | Non-Toxic
44 | O=S(=O)(NCC1(O)CCOc2cc(F)ccc21)c1cccc(Br)c1 (racemic) | Non-Toxic
45 | COC1(CNS(=O)(=O)c2cccc(Br)c2)CCOc2ccccc21 (racemic) | Non-Toxic
46 | O=S(=O)(NCC1(O)CCOc2ccccc21)c1cccc(Br)c1 (racemic) | Non-Toxic

system: Plasmodium falciparum; experiment: Antimalarial activity against Plasmodium falciparum infected in mosquitoes assessed as inhibition of oocyst formation at 10 uM added 30 mins before mosquito feed by standard membrane feeding assay; assay type: functional; settings: not given

Row | Structure (SMILES) | inhibition at 10 µM [%]
47 | O=S(=O)(NCC1(O)CCOc2ccccc21)c1ccc(Br)s1 (racemic) | 99

Source: ChEMBL document CHEMBL4342413, “Structure-Activity Relationship Studies of a Novel Class of Transmission Blocking Antimalarials Targeting Male Gametes” (J Med Chem, 2020)
